Residues, ends and D or L forms follow the SMILES beside them. No end group written: not given here.
What was measured:
Assay type in all cases: cell-based
E. coli = tested on: E. coli
Method: (§1) Regarding the antimicrobial polypeptide of the present invention (samples 1 to 33) and the polypeptides of comparative samples 1 to 3, the antimicrobial activities (minimum inhibitory concentration: MIC) with respect to gram-negative bacteria (E. coli) and gram-positive bacteria (S. aureus) were determined by a liquid medium dilution technique using a 96-well microplate.
(§2) More specifically, liquid bouillon media (“NUTRIENT BROTH Dehydraged” manufactured by DIFCO) in a polypeptide concentration of 500, 250, 125, 62.5, 31.3, 15.6, 7.8, 3.9, 1.9, 1.0 and 0.5 μM were prepared, and filled in a 96-well microplate. On the other hand, bacteria suspension (about 2×10^6 cells/mL) that had been stationary cultured at 37° C. for 18 hours with LB Broth, Lennox (manufactured by DIFCO) were inoculated to each well of the 96-well microplate in an equal amount to that of the pharmaceutical solution (the above-described polypeptide-containing bouillon medium). After inoculation, culture was started in an incubator at 37° C., and it was examined based on the turbidity after 24 hours and 48 hours whether or not bacteria are present. The minimum of the polypeptide concentrations in which no increase in the turbidity caused by bacteria at the time of measurement was observed was defined as MIC in this example.
(§3) The unit of MIC in Table 2 is μM. […]

S. aureus = tested on: S. aureus
Method: as §1, §2, §3

[1] = tested on: gram-negative bacteria (E. coli) and gram-positive bacteria (S. aureus); assay: antimicrobial test of Example 2, results summed up in words; conditions: summary of Table 2, E. coli and S. aureus
Method: as §1, §2

[2] = tested on: Escherichia coli O157:H7 sakai; conditions: O157:H7, 24 h
Method: as §2
Next, regarding the polypeptides of the samples 16, 17, 10, 14, and 20, the same antimicrobial test (MIC measurement test) as in Example 2 was performed with respect to various bacteria (see Table 3), and the antimicrobial spectra of these polypeptides were evaluated.

Molecule | antimicrobial activity (MIC) E. coli after 24h (E. coli) | antimicrobial activity (MIC) E. coli after 48h (E. coli) | antimicrobial activity (MIC) S. aureus after 24h (S. aureus) | antimicrobial activity (MIC) S. aureus after 48h (S. aureus) | antimicrobial activities (in words) [1] | antimicrobial activity after 24 hours: MIC [2]
N=C(N)NCCC[C@H](NC(=O)[C@H](CCCNC(=N)N)NC(=O)[C@H](CCCCN)NC(=O)[C@@H](N)CCCNC(=N)N)C(=O)O [comparative sample 1, RKRR, reference compound] (H-RKRR-OH; N-terminus and C-terminus assumed) | >500 µM | >500 µM | >500 µM | >500 µM | – | –
CC(C)[C@H](NC(=O)[C@H](CCCCN)NC(=O)[C@H](CCCNC(=N)N)NC(=O)[C@H](CCCCN)NC(=O)[C@H](CCCCN)NC(=O)[C@H](CCCCN)NC(=O)[C@@H]1CCCN1)C(=O)O [sample 1, PKKKRKV] | 62.5 µM | >500 µM | 62.5 µM | 125.0 µM | – | –
N=C(N)NCCC[C@H](NC(=O)[C@H](CCCNC(=N)N)NC(=O)[C@H](CCCNC(=N)N)NC(=O)[C@H](CCC(N)=O)NC(=O)[C@H](CCCNC(=N)N)NC(=O)[C@H](CCCNC(=N)N)NC(=O)[C@H](CCCCN)NC(=O)[C@H](CCCCN)NC(=O)[C@@H](N)CCCNC(=N)N)C(=O)O [sample 5, RKKRRQRRR] | – | – | – | – | particularly high antimicrobial activities | –
LALKLAGLDI [compound 3, LALKLAGLDI, reference compound] | >500 µM | >500 µM | >500 µM | >500 µM | – | –
LALKLAGLDIRKKKRKV [sample 15, LALKLAGLDIRKKKRKV] | 3.9 µM | 3.9 µM | 1.9 µM | 3.9 µM | high antimicrobial activities | –
LKRKLQR [sample 27, LKRKLQR] | 500.0 µM | >500 µM | 125.0 µM | 125.0 µM | – | –
LKRKLQRLKRKLQR [sample 30, LKRKLQRLKRKLQR] | 3.9 µM | 3.9 µM | 3.9 µM | 3.9 µM | – | –
LPPLERLTL [comparative sample 2, LPPLERLTL, reference compound] | >500 µM | >500 µM | >500 µM | >500 µM | – | –
LPPLERLTLPKKKRKV [sample 9, LPPLERLTLPKKKRKV] | 31.3 µM | 31.3 µM | 3.9 µM | 3.9 µM | – | –
LPPLERLTLRKKKRKV [sample 13, LPPLERLTLRKKKRKV] | 15.6 µM | 15.6 µM | 3.9 µM | 3.9 µM | – | –
MRKKKRKVRKKKRKV [sample 33, MRKKKRKVRKKKRKV] | 3.9 µM | 3.9 µM | 1.9 µM | 1.9 µM | – | –
PKKKRKVALGKLALGKL [sample 31, PKKKRKVALGKLALGKL] | 7.8 µM | 7.8 µM | 3.9 µM | 7.8 µM | – | –
PKKKRKVLPPLERLTL [sample 8, PKKKRKVLPPLERLTL] | 31.3 µM | 31.3 µM | 3.9 µM | 3.9 µM | – | –
PKKKRKVLPPLERLTLPKKKRKV [sample 11] | 3.9 µM | 3.9 µM | 1.9 µM | 1.9 µM | – | –
PKKKRKVPKKKRKV [sample 16, PKKKRKVPKKKRKV] | – | – | – | – | – | 17.9 µM
PKKKRKVPPRKKRTVV [sample 19, PKKKRKVPPRKKRTVV] | 3.9 µM | 3.9 µM | 7.8 µM | 7.8 µM | – | –

Molecule | antimicrobial activity (MIC) E. coli after 24h (E. coli) | antimicrobial activity (MIC) E. coli after 48h (E. coli) | antimicrobial activity (MIC) S. aureus after 24h (S. aureus) | antimicrobial activity (MIC) S. aureus after 48h (S. aureus) | antimicrobial activities (in words) [1] | antimicrobial activity after 24 hours: MIC [2]
PKKKRRV [sample 26, PKKKRRV] | 62.5 µM | 500.0 µM | 125.0 µM | 125.0 µM | – | –
PPRKKRTVV [sample 4, PPRKKRTVV] | 250.0 µM | >500 µM | 125.0 µM | 125.0 µM | – | –
PRRRK [sample 6, PRRRK] | >500 µM | >500 µM | 250.0 µM | 500.0 µM | – | –
PRRRK-NH2 [sample 23, PRRRK] | 31.3 µM | 31.3 µM | 7.8 µM | 15.6 µM | – | –
PRRRKPRRRK [sample 18, PRRRKPRRRK] | 3.9 µM | 3.9 µM | 7.8 µM | 7.8 µM | – | –
RIRKKLR [sample 3, RIRKKLR] | 62.5 µM | 62.5 µM | 62.5 µM | 62.5 µM | – | –
RKKKRKV-NH2 [sample 24, RKKKRKV-CONH2] | 3.9 µM | 15.6 µM | 1.0 µM | 1.0 µM | higher antimicrobial activities | –
RKKKRKV-OH [sample 7, RKKKRKV] | 62.5 µM | 500.0 µM | 15.6 µM | 31.3 µM | – | –
RKKKRKVKRKKKR [sample 29, RKKKRKVKRKKKR] | 1.0 µM | 1.0 µM | 3.9 µM | 7.8 µM | particularly high antimicrobial activities | –
RKKKRKVLPPLERLTL [sample 12, RKKKRKVLPPLERLTL] | 15.6 µM | 15.6 µM | 3.9 µM | 3.9 µM | – | –
RKKKRKVRKKKRKV-NH2 [sample 25, RKKKRKVRKKKRKV-CONH2] | 3.9 µM | 3.9 µM | 1.9 µM | 1.9 µM | – | –
RKKKRKVRKKKRKVRKKKRKV [sample 21] | 1.9 µM | 1.9 µM | 0.5 µM | 0.5 µM | – | –
RKKKRKVRKKKRKVRKKKRKVRKKKRKV [sample 22] | 1.9 µM | 1.9 µM | 1.0 µM | 1.0 µM | – | –
RKKKRKVVKRKKKR [sample 28, RKKKRKVVKRKKKR] | 1.0 µM | 1.0 µM | 3.9 µM | 7.8 µM | particularly high antimicrobial activities | –
RQARRNRRRRWR [sample 2, RQARRNRRRRWR] | – | – | – | – | particularly high antimicrobial activities | –
RQARRNRRRRWRLPPLERLTLD [sample 10] | – | – | – | – | high antimicrobial activities | –
